Here are results for nine compounds from the RepoRT retention time repository.

The data set can be described thus: Waters ACQUITY UPLC BEH C18, 100 × 2.1 mm, 1.7 µm, 40 °C, 0.3 to 0.4 mL/min, estimated dead time 0.63 min; A: water + 0.1% formic acid; B: methanol + 0.1% formic acid; gradient (min/%B) 0/0.5 0.1/0.5 10/80 10.1/99.5 12/99.5. The note with it: stereoisomer not certain.

As to `CC1OC(OC2C(OC3C(OC4CCC5(C)C(CCC6(C)C5C=CC5=C7CC(C)(C)CC(O)C7(C)CCC56C)C4(C)CO)OC(C(=O)O)C(O)C3O)OC(C(=O)O)C(O)C2O)C(O)C(O)C1O` (centres undefined), the LC retention time is 7.57 min.

With `CCCCCCCCC1OC1CCCCCCCC(=O)O` (centres undefined), the LC retention time was 10.3 min.

Consider `O=C([O-])CC(=O)OCC1OC(OC2Cc3c(O)cc(O)cc3[O+]=C2c2ccc(O)cc2)C(O)C(O)C1O` (centres undefined), for which the LC retention time was 4.88 min.

Take `CC1CNC2(OC3CC4C5CCC6CC(OC7OC(CO)C(OC8OC(CO)C(O)C(O)C8OC8OC(CO)C(O)C(O)C8O)C(O)C7O)CCC6(C)C5CCC4(C)C3C2C)C(O)C1` (centres undefined): the LC retention time is 4.24 min.

Turning to `O=C(C=Cc1ccc(O)cc1)OC1CC(O)(C(=O)O)CC(O)C1O` (centres undefined), the LC retention time is 3.08 min.

As to `O=C(O)C1C(O)CCC2CN3CCc4c([nH]c5ccccc45)C3CC21` (centres undefined), the LC retention time was 3.82 min.

With `O=c1cc(-c2ccc(O)cc2)oc2c(C3OCC(O)C(O)C3O)c(O)c(C3OCC(O)C(O)C3O)c(O)c12` (centres undefined), the LC retention time was 3.89 min.

`O=S(=O)(O)ON=C(Cc1ccc(O)cc1)SC1OC(CO)C(O)C(O)C1O` (centres undefined): the LC retention time is 2 min.

With `COc1ccc2cc1Oc1ccc(cc1)CC1=NCCc3cc(OC)c(cc31)Oc1c(OC)c(OC)c(OC)c3c1C(C2)N(C)CC3` (centres undefined), the LC retention time was 4.25 min.
